Source: patent US20220087970A1, “PREVENTION OF ANESTHETIC-INDUCED NEUROCOGNITIVE DYSFUNCTION” (The Johns Hopkins University, priority 2019, published 2022)

Key:
Format in all cases: in vivo
[1] = tested on: C57BL6 mice; assay: Novel object recognition at PND21; conditions: mean ±SD, in s (unit assumed)
Protocol: 1.3.2 Anesthesia, Peptide, and Molsidomine Injections. PND7 control and experimental mice were placed in a clear plastic cone and body temperature maintained by a heating blanket set to 35° C. Vital signs and physiological monitoring were assessed using PhysioSuite® (Kent Scientific Corporation, Torrington, Conn., USA) and blood gasses were collected arterially. […] Note that lower concentrations of 02 can be used, e.g., between 20% to 100% 02, including 20%, 25%, 30%, 35%, 40%, 45%, 50%, 55%, 60%, 65%, 70%, 75%, 80%, 85%, 90%, 95%, 96%, 97%, 98%, 99%, and 100% 02. Naïve animals were left with the dams. Anesthesia was initiated with 2.4% ISO in 100% oxygen for 2 min and tapered down to 1.5% within 15 min. Exposure to 1.5% ISO was continued for 3 hours and 45 min (total 4 hours ISO). Control ‘CON’ animals were exposed to 100% oxygen only. At the end of the exposure animals were maintained in oxygen on the heating blanket for 10 min then returned to dams. […] Tao and Johns, 2008. A single injection of peptide was given ip. Separate peptide cohorts were injected in parallel with mice undergoing exposure to anesthesia or O2 control. Purification of fusion peptides was performed by Creative BioMart (Shirley, N.Y.) and verified by Coomassie blue staining and Western blot analysis and then stored in 10% glycerol/phosphate buffered saline at −80° C. until use. The Tat-PSD-95 PDZ2WT and MUT plasmids used to generate proteins containing an amino-terminal, in-frame, 11-amino-acid, minimal transduction domain (residues 47-57 of human immunodeficiency virus Tat protein) termed Tat. […] Fang et al., 2003. The NO donor molsidomine [(N-[ethoxycarbonyl]-3-[4-morpholinosydnomine] (Sigma, St. Louis, Mo.) was injected at 4 mg/kg into mice ip in 100 μL sterile saline as previously described. The NO donor was added immediately following cessation of anesthesia or control (O2) exposure, i.e., the NO donor was injected 4 hours after onset of anesthesia. One of ordinary skill in the art upon review of the present disclosure would appreciate that the NO donor could be administered at other times during anesthesia, including at the onset of anesthesia. Control animals were injected ip with the vehicle (saline).
1.3.7 Novel Object Recognition. The novel object recognition (NOR) procedure was based upon the original Ennaceur et al., 1988, procedure and was used to assess nonspatial hippocampal memory. Clark et al., 2000; Baker and Kim, 2002; Reger et al., 2009. It consisted of a training ‘familiarization’ phase followed by a testing phase. During training, mice were allowed to freely explore within an opaque box (40 cm W×40 cm L×34 cm H) containing two identical objects for 10 min. Data were recorded with a video camera and time spent with each object was recorded using ANYmaze software (Stoelting). Object investigation time was determined by the amount of time the mouse spent in the zone immediately surrounding the object. […] After 2 h, object recognition was tested, using the same procedure as in training except that a novel object was substituted for one of the familiar training objects and mice were allowed to explore for 5 min. Mice inherently prefer to explore novel objects; thus, a preference for the novel object indicates intact memory for the familiar object.

[2] = tested on: SAP102; assay: Western blot of hippocampal synaptic fractions: SAP102; conditions: one day after PND7 mice exposed to isoflurane (1.5% ISO in O2, 4 h)
Protocol: (§1) One day after PND7 mice were exposed to isoflurane (1.5% ISO in O2, 4 h), we harvested hippocampal tissues for Western blotting to assess the expression of receptors and MAGUKs. […] (N=9). A *p<0.05 was considered significant. […] Data shown as % actin;

[3] = tested on: NR1; assay: Western blot of hippocampal synaptic fractions: NR1; conditions: one day after PND7 mice exposed to isoflurane (1.5% ISO in O2, 4 h)
Protocol: as §1

[4] = tested on: caspase-3; assay: Western blot for cleaved caspase-3 (apoptosis) after PND7 exposure; conditions: PND7 mice, 4 h treatment (1.5% ISO in 100% O2 or peptide 8 mg/kg ip), 2 h following cessation of exposure
Protocol: 1.3.2 Anesthesia, Peptide, and Molsidomine Injections. PND7 control and experimental mice were placed in a clear plastic cone and body temperature maintained by a heating blanket set to 35° C. Vital signs and physiological monitoring were assessed using PhysioSuite® (Kent Scientific Corporation, Torrington, Conn., USA) and blood gasses were collected arterially. […] Note that lower concentrations of 02 can be used, e.g., between 20% to 100% 02, including 20%, 25%, 30%, 35%, 40%, 45%, 50%, 55%, 60%, 65%, 70%, 75%, 80%, 85%, 90%, 95%, 96%, 97%, 98%, 99%, and 100% 02. Naïve animals were left with the dams. Anesthesia was initiated with 2.4% ISO in 100% oxygen for 2 min and tapered down to 1.5% within 15 min. Exposure to 1.5% ISO was continued for 3 hours and 45 min (total 4 hours ISO). Control ‘CON’ animals were exposed to 100% oxygen only. At the end of the exposure animals were maintained in oxygen on the heating blanket for 10 min then returned to dams. […] Tao and Johns, 2008. A single injection of peptide was given ip. Separate peptide cohorts were injected in parallel with mice undergoing exposure to anesthesia or O2 control. […]
1.3.3 Western Blotting. […] Proteins were detected by enhanced chemiluminescence (Amersham, Piscataway, N.J.). […]

[5] = PSD93KO mice exposed to ISO at PND7, tested at PND21
[6] = WT mice exposed at PND7, tested at PND21

FC(F)OC(Cl)C(F)(F)F (racemic) [ISO, (RS)-2-chloro-2-(difluoromethoxy)-1,1,1-trifluoroethane]
investigation time of the known object [1, 5]: 29±13 | investigation time of the novel object [1, 5]: 42±20 | investigation time of the known object [1, 6]: 18±12 | investigation time of the novel object [1, 6]: 29±11 | amount of SAP102 in synaptic fractions [2]: significant increase | amount of NR1 in synaptic fractions [3]: decrease | cleaved caspase-3 (Western blot) [4]: did not yield any detectable cleaved caspase
